Read-outs that look alike come from different tables or passages of the source.
Legend:
cyclin D1/cdk 4 enzyme = molecular target: T1, cyclin D1/cdk 4 enzyme (Homo sapiens, UniProt P11802); assay: CDK4 ELISA kinase assay (phospho-Rb ser 795 detection); assay type: biochemical
T1 construct: made in house; host or cells: Sf9 insect cells, recombinant baculovirus
How it was run: (§1)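 GST-Rb C-terminal fragment coated on plates; partially purified Sf9-expressed cyclin D1/CDK4, cyclin E/CDK2 or cyclin B/CDK1 with 200 μM ATP, pH 7.5 HEPES/MgCl2 buffer, 1 h at 30 °C; screen compound final 10 μg/ml. Phospho-Rb Ser795 detected by antibody ELISA (TMB, A450); % of control, IC50 from background-subtracted inhibition curves.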

cyclin E/CDK2 enzyme = molecular target: T2, cyclin E/CDK2 enzyme (Homo sapiens, UniProt P24941); assay: CDK2 ELISA kinase assay (phospho-Rb ser 795 detection); assay type: biochemical
T2 construct: made in house; host or cells: Sf9 insect cells, recombinant baculovirus
How it was run: as §1

cyclin B/CDK1 enzyme = molecular target: T3, cyclin B/CDK1 enzyme (Homo sapiens, UniProt P06493); assay: CDK1 ELISA kinase assay (phospho-Rb ser 795 detection); assay type: biochemical
T3 construct: purchased New England BioLabs; host or cells: Sf9 insect cells, recombinant baculovirus
T3 sequence (P06493 whole entry): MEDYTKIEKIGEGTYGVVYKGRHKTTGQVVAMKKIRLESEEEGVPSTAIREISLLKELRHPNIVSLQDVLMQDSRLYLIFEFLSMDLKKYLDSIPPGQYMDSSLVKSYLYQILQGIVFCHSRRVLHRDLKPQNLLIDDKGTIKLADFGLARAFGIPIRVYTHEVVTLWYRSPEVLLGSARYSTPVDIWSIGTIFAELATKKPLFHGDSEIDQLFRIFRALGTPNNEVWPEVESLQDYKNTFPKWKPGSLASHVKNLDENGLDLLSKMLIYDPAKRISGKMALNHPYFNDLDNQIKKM
T3 sequence (P14635 whole entry partner): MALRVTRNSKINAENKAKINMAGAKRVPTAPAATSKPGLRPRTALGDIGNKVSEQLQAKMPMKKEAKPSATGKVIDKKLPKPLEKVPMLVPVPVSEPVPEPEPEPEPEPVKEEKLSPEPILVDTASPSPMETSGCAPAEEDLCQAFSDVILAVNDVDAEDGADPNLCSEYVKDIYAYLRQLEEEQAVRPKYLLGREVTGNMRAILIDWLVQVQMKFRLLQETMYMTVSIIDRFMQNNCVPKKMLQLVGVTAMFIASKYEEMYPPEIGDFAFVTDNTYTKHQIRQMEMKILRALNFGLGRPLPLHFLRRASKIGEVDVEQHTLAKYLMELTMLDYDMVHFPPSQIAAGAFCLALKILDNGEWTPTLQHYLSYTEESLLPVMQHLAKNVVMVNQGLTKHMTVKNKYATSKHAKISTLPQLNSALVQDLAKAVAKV
How it was run: as §1

BT474 = assay: Cytotoxicity assay (SRB), BT474; assay type: cell-based
How it was run: (§2)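 Cells grown in RPMI 1640 with 5% FBS were treated with compound for three days (HCT-116, LoVo, MCF-7) or six days (BT474). Viable cell mass was quantified by sulforhodamine B staining of TCA-fixed protein and read at 540 nm.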

HCT-116 = assay: Cytotoxicity assay (SRB), HCT-116; assay type: cell-based; conditions: Homo sapiens, HCT-116, 72 h, HCT116 cells, SRB, read-out: In Vitro Cellular Activity IC50 HCT116
How it was run: as §2

LoVo = assay: Cytotoxicity assay (SRB), LoVo; assay type: cell-based; conditions: Homo sapiens, LoVo, 72 h, LoVo cells, SRB, read-out: In Vitro Cellular Activity IC50 LOVO
How it was run: as §2

MCF-7 = assay: Cytotoxicity assay (SRB), MCF-7; assay type: cell-based; conditions: Homo sapiens, MCF7, 72 h, MCF-7 cells, SRB, read-out: In Vitro Cellular Activity IC50 MCF-7
How it was run: as §2

[1] = In Vitro Enzyme Assays, 200 μM ATP, read-out: CDK4 IC50
[2] = In Vitro Enzyme Assays, read-out: CDK2 IC50
[3] = In Vitro Enzyme Assays, read-out: CDK1 IC50
[4] = Homo sapiens, BT-474, 144 h, BT474 cells, SRB, 6 days; read-out: In Vitro Cellular Activity IC50 BT474
[5] = In Vitro Enzyme Assay, cyclin D1/cdk 4, read-out: CDK4 IC50
[6] = In Vitro Enzyme Assay, cyclin E/CDK2, read-out: CDK2 IC50
[7] = In Vitro Enzyme Assay, cyclin B/CDK1, read-out: CDK1 IC50
[8] = Homo sapiens, BT-474, 144 h, BT474 cells, 6 days, SRB; read-out: In Vitro Cellular Activity IC50 BT474

T1 sequence (P11802 whole entry, species assumed): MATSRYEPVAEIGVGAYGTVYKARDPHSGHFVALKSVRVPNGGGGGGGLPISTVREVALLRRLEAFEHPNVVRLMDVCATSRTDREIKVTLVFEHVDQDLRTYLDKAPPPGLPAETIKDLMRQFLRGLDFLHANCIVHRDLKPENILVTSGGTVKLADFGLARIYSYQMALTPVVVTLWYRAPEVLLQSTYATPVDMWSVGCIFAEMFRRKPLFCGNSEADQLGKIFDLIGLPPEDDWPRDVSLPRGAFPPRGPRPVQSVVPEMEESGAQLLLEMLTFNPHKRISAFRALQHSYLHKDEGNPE
T1 sequence (P24385 whole entry partner, species assumed): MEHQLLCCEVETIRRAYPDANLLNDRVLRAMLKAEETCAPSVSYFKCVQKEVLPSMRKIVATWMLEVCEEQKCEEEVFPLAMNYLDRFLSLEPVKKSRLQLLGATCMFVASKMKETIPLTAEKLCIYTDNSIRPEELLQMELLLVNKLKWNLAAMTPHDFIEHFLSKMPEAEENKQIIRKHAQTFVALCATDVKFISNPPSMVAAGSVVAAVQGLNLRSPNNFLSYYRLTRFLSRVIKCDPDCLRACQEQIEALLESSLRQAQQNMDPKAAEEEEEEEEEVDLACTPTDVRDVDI

Compound | IC50 (cyclin D1/cdk 4 enzyme; [1]) [µM] | IC50 (cyclin E/CDK2 enzyme; [2]) [µM] | IC50 (cyclin B/CDK1 enzyme; [3]) [µM] | melting point | IC50 (cyclin D1/cdk 4 enzyme; [5]) [µM] | IC50 (cyclin E/CDK2 enzyme; [6]) [µM] | IC50 (cyclin B/CDK1 enzyme; [7]) [µM] | IC50 (BT474; [4]) [µM] | IC50 (HCT-116; three days) [µM] | IC50 (LoVo; three days) [µM] | IC50 (MCF-7; three days) [µM] | IC50 (BT474; [8]) [µM] | IC50 (HCT-116; 3 days) [µM] | IC50 (LoVo; 3 days) [µM] | IC50 (MCF-7; 3 days) [µM]
Nc1ccc(CN/C=C2\C(=O)NC(=O)c3ccc(-c4ccc(F)cc4)cc32)cc1O [Example 134, (4Z)-4-{[(4-Amino-3-hydroxybenzyl)amino]methylene}-6-(4 fluorophenyl)isoquinoline-1,3(2H,4H)-dione] | 0.04 | 13.2 | > 50 | 227 to 228 °C | – | – | – | 11 | 13 | 11 | 12 | – | – | – | –
O=C1NC(=O)c2ccc(Br)cc2/C1=C/NCc1ccc(OC(F)F)c(O)c1 [Example 180] | 0.07 | > 50 | > 50 | 256 to 258 °C | – | – | – | 5.1 | 5.9 | 6.2 | 15 | – | – | – | –
Nc1ccc(CN/C=C2\C(=O)NC(=O)c3ccc(I)cc32)cc1O [Example 122, (4Z)-4-{[(4-Amino-3-hydroxybenzyl)amino]methylene}-6-iodoisoquinoline-1,3(2H,4H)-dione] | 0.04 | 1.6 | 16.1 | 250 to 251 °C | – | – | – | 5.2 | 7.5 | 9.9 | 17 | – | – | – | –
CCC(=O)Nc1cnc(CN/C=C2\C(=O)NC(=O)c3ccc(I)cc32)cc1O [Example 470, N-(4-Hydroxy-6-{[(6-iodo-1,3-dioxo-2,3-dihydro-1H-isoquinolin-4-ylidenemethyl)-amino]-methyl}-pyridin-3-yl)-propionamide] | – | – | – | 210 to 218 °C (dec.) | 0.05 | 0.19 | 2.5 | – | – | – | – | 2 | 20.9 | 19.1 | 37.8
Cc1cc(N/C=C2\C(=O)NC(=O)c3ccc(-c4ccoc4)cc32)cnc1N1C[C@@H](C)N[C@@H](C)C1 [Example 355, (4Z)-4-[({6-[(3R,5S)-3,5-Dimethylpiperazin-1-yl]-5-methylpyridin-3-yl}amino)methylene]-6-(3-furyl)isoquinoline-1,3(2H,4H)-dione] | 0.36 | > 50 | > 50 | 195 to 196 °C | – | – | – | 1.7 | 1.2 | 2 | 1.4 | – | – | – | –
COC[C@@H]1CCCN1Cc1ccc(N/C=C2\C(=O)NC(=O)c3ccc(-c4ccco4)cc32)cc1 [Example 467, (4Z)-6-(2-Furyl)-4-{[(4-{[(2S)-2-(methoxymethyl)pyrrolidin-1-yl]methyl}phenyl)amino]methylene}isoquinoline-1,3(2H,4H)-dione] | – | – | – | 159 to 160 °C | 0.21 | > 50 | > 50 | – | – | – | – | 3.6 | 2.3 | 2.4 | 1.9
COc1ccc(-c2ccc3c(c2)/C(=C/Nc2cnc(N4C[C@@H](C)N[C@@H](C)C4)c(C)c2)C(=O)NC3=O)cc1 [Example 357, (4Z)-4-[({6-[(3R,5S)-3,5-Dimethylpiperazin-1-yl]-5-methylpyridin-3-yl}amino)methylene]-6-(4-methoxyphenyl)isoquinoline-1,3(2H,4H)-dione] | 31 | > 50 | > 50 | 213 to 214 °C | – | – | – | 2.5 | 1.1 | 2.8 | 1.6 | – | – | – | –
O=C1NC(=O)c2ccc(Br)cc2/C1=C/Nc1ccc(CN2CCOCC2)cc1 [Example 286, (4Z)-6-Bromo-4-({[4-(morpholin-4-ylmethyl)phenyl]amino}methylene)isoquinoline-1,3(2H,4H)-dione] | 3 | > 50 | > 50 | 209 to 210 °C | – | – | – | 16 | 5.8 | 11 | 5.5 | – | – | – | –
Cl.O=C1NC(=O)c2ccc(Br)cc2C1=NNc1ccc(CN2CCCCC2)cc1 [Example 144, 6-Bromo-4-[(4-piperidin-1-ylmethyl-phenyl)-hydrazono]-4H-isoquinoline-1,3-dione Hydrochloride] | 1.9 | > 50 | > 50 | 298 to 299 °C (dec.) | – | – | – | 3.2 | 1.5 | 3.2 | 3.2 | – | – | – | –
CO[C@@H]1CCN(Cc2ccc(N/C=C3\C(=O)NC(=O)c4ccc(Br)cc43)cc2)C1 [Example 266, (4Z)-6-Bromo-4-{[(4-{[(3R)-3-methoxypyrrolidin-1-yl]methyl}phenyl)amino]methylene}isoquinoline-1,3(2H,4H)-dione] | 1.9 | > 50 | > 50 | 132 to 133 °C | – | – | – | 9.1 | 6.2 | 8.4 | 4 | – | – | – | –

The remaining molecules from weak to strong by IC50 (cyclin D1/cdk 4 enzyme; [1]), led by results:

IC50 (cyclin D1/cdk 4 enzyme; [1]) [µM] | IC50 (cyclin E/CDK2 enzyme; [2]) [µM] | IC50 (cyclin B/CDK1 enzyme; [3]) [µM] | melting point | IC50 (cyclin D1/cdk 4 enzyme; [5]) [µM] | IC50 (cyclin E/CDK2 enzyme; [6]) [µM] | IC50 (cyclin B/CDK1 enzyme; [7]) [µM] | Compound | IC50 (BT474; [4]) [µM] | IC50 (HCT-116; three days) [µM] | IC50 (LoVo; three days) [µM] | IC50 (MCF-7; three days) [µM] | IC50 (BT474; [8]) [µM] | IC50 (HCT-116; 3 days) [µM] | IC50 (LoVo; 3 days) [µM] | IC50 (MCF-7; 3 days) [µM]
20.4 | 31 | > 50 | 177 to 179 °C (dec.) | – | – | – | COc1ccc(CNC=C2C(=O)NCc3ccccc32)cc1O [Example 160, 4-[(3-Hydroxy-4-methoxy-benzylamino)-methylene]-1,4-dihydro-2H-isoquinoline-3-one] | > 50 | > 50 | 43 | 30 | – | – | – | –
7.4 | > 50 | > 50 | 198 to 220 °C | – | – | – | COc1cc2c(cc1-c1ccoc1)/C(=C/Nc1ccc(N3CCN(C)CC3)cc1)C(=O)NC2=O [Example 254, 6-Furan-3-yl-7-methoxy-4-{[4-(4-methyl-piperazin-1-yl)-phenylamino]-methylene}-4H-isoquinoline-1,3-dione] | 2.1 | 2 | 4.8 | 2.4 | – | – | – | –
2.9 | > 50 | 3.8 | 268 to 269 °C | – | – | – | O=C1NC(=O)c2ccc(/C=C/CCCCl)cc2/C1=C/Nc1ccc(CN2CCCCC2)cc1 [Example 112, (4Z)-6-[(1E)-5-Chloropent-1-enyl]-4-({[4-(piperidin-1-ylmethyl)phenyl]amino}methylene)isoquinoline-1,3(2H,4H)-dione] | 2.3 | 0.98 | 1.9 | 3.3 | – | – | – | –
0.37 | > 50 | > 50 | 152 to 153 °C | – | – | – | O=C1NC(=O)c2ccc(-c3ccc(F)cc3)cc2/C1=C/Nc1ccc(CN2CCCC2)cc1 [Example 127, (4Z)-6-(4-Fluorophenyl)-4-({[4-(pyrrolidin-1-ylmethyl)phenyl]amino}methylene)isoquinoline-1,3(2H,4H)-dione] | 1.4 | 1.3 | 2.9 | 1.4 | – | – | – | –
0.19 | > 50 | > 50 | 165 to 166 °C | – | – | – | CC1CCCN1Cc1ccc(N/C=C2\C(=O)NC(=O)c3ccc(-c4ccoc4)cc32)cc1 (stereo not drawn) [Example 291, (4Z)-6-(3-Furyl)-4-[({4-[(2-methylpyrrolidin-1-yl)methyl]phenyl}amino)methylene]-isoquinoline-1,3(2H,4H)-dione] | 1 | 2.3 | 1.9 | 0.59 | – | – | – | –

Source: US7713994B2 (Wyeth LLC, priority 2005, dated 2010)
